This is an account of results in ChEMBL document CHEMBL4024734, “Design, synthesis, biological evaluation and molecular docking studies of novel 3-aryl-4-anilino-2H-chromen-2-one derivatives targeting ERα as anti-breast cancer agents” (Bioorg Med Chem Lett, 2017).

For assay [1], the system named is MCF7. Description: Antiproliferative activity against ER positive human MCF7 cells after 48 hrs by MTT assay. It counts as functional, cell-based. The settings on record: MCF7, 48 h. (Tetrazolium assays rely on reduction of a dye to a coloured formazan, in cell work by metabolically active cells.)
The subject of assay [2] is Ishikawa. Description: Antiproliferative activity against human Ishikawa cells after 48 hrs by MTT assay. It counts as functional, cell-based.
In assay [3] the test system is MCF7. Description: Potency index, ratio of tamoxifen IC50 to compound IC50 against human MCF7 cells. It counts as functional.
Assay [4] addresses T1, Estrogen receptor (Homo sapiens) (UniProt P03372).
T1 sequence (whole entry): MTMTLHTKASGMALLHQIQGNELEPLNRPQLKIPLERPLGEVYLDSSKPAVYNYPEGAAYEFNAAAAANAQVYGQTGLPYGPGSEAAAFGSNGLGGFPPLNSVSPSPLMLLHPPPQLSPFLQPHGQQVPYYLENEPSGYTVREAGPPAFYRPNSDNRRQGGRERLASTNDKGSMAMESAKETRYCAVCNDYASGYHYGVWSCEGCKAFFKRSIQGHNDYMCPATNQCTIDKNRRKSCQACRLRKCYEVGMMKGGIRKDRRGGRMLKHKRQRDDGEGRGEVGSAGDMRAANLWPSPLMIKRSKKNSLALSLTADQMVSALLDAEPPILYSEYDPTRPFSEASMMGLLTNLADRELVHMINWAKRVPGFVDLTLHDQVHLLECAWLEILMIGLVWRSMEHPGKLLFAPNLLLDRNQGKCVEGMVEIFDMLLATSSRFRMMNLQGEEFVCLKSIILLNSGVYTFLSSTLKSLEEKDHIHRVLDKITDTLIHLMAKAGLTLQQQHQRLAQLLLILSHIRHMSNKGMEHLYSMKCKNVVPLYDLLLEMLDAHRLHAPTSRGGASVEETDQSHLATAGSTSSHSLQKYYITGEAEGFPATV
Nature of the assay: Displacement of fluoromone from full length recombinant human estrogen receptor alpha expressed in Spodoptera frugiperda at 100 uM measured after 2 hrs by fluorescence polarization assay relative to control.

Broadly, the IC50 is the concentration needed to halve the response being measured. Low values mean greater potency in that assay, high ones weaker potency in that assay.

SMILES strings stand for the structures.

`CC/C(=C(\c1ccccc1)c1ccc(OCCN(C)C)cc1)c1ccccc1` [TAMOXIFEN] returned an IC50 in assay [1] of 11.3 µM.
Consider `COc1ccc(-c2c(Nc3ccc(OCCN4CCN(C)CC4)cc3)c3ccccc3oc2=O)cc1`, for which the IC50 was found to be 23.4 µM in assay [2] and 15.6 µM in assay [1].
For `COc1ccc(-c2c(Nc3ccc(OCCN4CCN(C)CC4)cc3)c3ccc(OC)cc3oc2=O)cc1`, the IC50 in assay [2] worked out at 15.2 µM; in assay [1], 12.4 µM.
In the case of `COc1ccc(-c2c(Nc3ccc(OCCN4CCOCC4)cc3)c3ccc(O)cc3oc2=O)cc1`, the IC50 in assay [2] and in assay [1] was over 100 µM in each case.
Regarding `COc1ccc(-c2c(Nc3ccc(OCCN4CCCCC4)cc3)c3ccc(O)cc3oc2=O)cc1`, the IC50 was found to be 8.43 µM in assay [2] and 7.31 µM in assay [1].
In the same order, the values of `COc1ccc(-c2c(Nc3ccc(OCCN4CCCC4)cc3)c3ccc(O)cc3oc2=O)cc1` are 11.8 µM and 8.42 µM.
On to `COc1ccc(-c2c(Nc3ccc(OCCN4CCCC4)cc3)c3ccccc3oc2=O)cc1`, for which the IC50 in assay [2] is 9.3 µM; in assay [1], 6.21 µM.
The like results for `COc1ccc(-c2c(Nc3ccc(OCCN(C)C)cc3)c3ccccc3oc2=O)cc1` were, in that order, 11.8 µM and 8.76 µM.
In the same order, the values of `CCN(CC)CCOc1ccc(Nc2c(-c3ccc(OC)cc3)c(=O)oc3ccccc23)cc1` are 10.8 µM and 7.57 µM.
Consider `COc1ccc(-c2c(Nc3ccc(OCCN4CCCCC4)cc3)c3ccc(OC)cc3oc2=O)cc1`, for which the IC50 was 11.6 µM in assay [2] and 4.52 µM in assay [1]. Moreover, the “Ratio IC50” value in assay [3] is 3.
Turning to `COc1ccc(-c2c(Nc3ccc(OCCN4CCOCC4)cc3)c3ccccc3oc2=O)cc1`, in assay [4], the RBA stood at 17%. Moreover, the IC50 in assay [2] was found to be 49.5 µM; in assay [1], 47.5 µM.
`CCN(CC)CCOc1ccc(Nc2c(-c3ccc(OC)cc3)c(=O)oc3cc(OC)ccc23)cc1`: the 50% inhibitory concentration (IC50) stood at 8.84 µM in assay [2] and 10.2 µM in assay [1].
In the same order, the values of `COc1ccc(-c2c(Nc3ccc(OCCN(C)C)cc3)c3ccc(OC)cc3oc2=O)cc1` are 12.2 µM and 8.32 µM.
For the compound `COc1ccc(-c2c(Nc3ccc(OCCN4CCN(C)CC4)cc3)c3ccc(O)cc3oc2=O)cc1`, the IC50 in assay [2] was found to be 19.4 µM; in assay [1], 17.6 µM.
The like results for `CCN(CC)CCOc1ccc(Nc2c(-c3ccc(OC)cc3)c(=O)oc3cc(O)ccc23)cc1` were, in that order, 14.8 µM and 8.81 µM.
As for `COc1ccc(-c2c(Nc3ccc(OCCN4CCOCC4)cc3)c3ccc(OC)cc3oc2=O)cc1`, in assay [4], the RBA came out at 24%. The IC50 in assay [2] and in assay [1] was over 100 µM each time.
As to `COc1ccc(-c2c(Nc3ccc(OCCN4CCCCC4)cc3)c3ccccc3oc2=O)cc1`, the IC50 in assay [2] came out at 8.74 µM; in assay [1], 5.86 µM.
In the same order, the values of `COc1ccc(-c2c(Nc3ccc(OCCN4CCCC4)cc3)c3ccc(OC)cc3oc2=O)cc1` are 9.39 µM and 6.51 µM.
In the same order, the values of `COc1ccc(-c2c(Nc3ccc(OCCN(C)C)cc3)c3ccc(O)cc3oc2=O)cc1` are 13.2 µM and 9.53 µM.
